The source of these data is patent US4939171A, “Sebosuppressive topical preparations” (Henkel Kommanditgesellschaft auf Aktien, priority 1987, dated 1990).

Assay [1] relates to sebum. Nature of the assay: Testing and evaluation of the antiseborrhoeic effect: percentage sebum reduction from browning of the backs of male rats. In kind it is in vivo. The following applies: Rattus norvegicus, 336 h, topical, male Wistar rats, 9 applications in 2 weeks; for inhibition in vivo at 0.05 % strength: Concentration 0.05 % by weight; for inhibition in vivo at 0.02 % strength: Concentration 0.02 % by weight; for inhibition in vivo at 0.5 % strength: Concentration 0.5 % by weight; for inhibition in vivo at 0.1 % strength: Concentration 0.1 % by weight; for inhibition in vivo at 0.005 % strength: Concentration 0.005 % by weight; for inhibition in vivo at 0.01 % strength: Concentration 0.01 % by weight; for inhibition in vivo at 0.001 % strength: Concentration 0.001 % by weight. The source says:
The test is based on the observation that male rats secrete a brownish sebum so that the degree of greasiness of the skin may readily be visually assessed as browning of the skin. […] At the same time, only very small quantities of lipids can be extracted from the hair cut off; cf. J Soc. Cosmet. Chem. 34, 127-135 (1983)).
Male Wistar rats having a body mass of 220 to 230 grams at the beginning of the test were used as the test animals. The test substances, dissolved in a mixtures of equal volumes of ethanol and acetone, were brushed onto half of the back of each of 6 rats for each substance and concentration tested. The other half of the back of each tested rat was treated with the solvent only. One application was made on each tested rat on each of Monday through Friday of one week and on each of Monday through Thursday in the next week; the rats were then evaluated on Friday of the second week. For evaluation, the rats were shaved on their backs and flanks and visually assessed independently by a panel of examiners (6 people) under double-blind conditions. The degree of browning on the backs of the rats was visually assessed as a measure of the sebum coating. A group of six rats of the same type treated on both sides with the solvent only was used for control.
The intensities of the brown color on each control rat, and on the side of each other tested rat that had been treated with a solution containing a substance to be tested for its sebosuppressive ability, were scored according to the following scale:
The sum of the scores for the six treated rats in each group was divided by the sum of the scores for the six control rats for that group, this quotient was multiplied by 100, and that result subtracted from 100, to give the percentage sebum reduction as recorded in the tables below.

For assay [2], the system named is sebum. The conditions noted are these: male rats systematically treated; cited from earlier work.

Usually inhibition in vivo stands for the drop in the measured response relative to a control, in per cent. With `C/C(=C\COc1ccc(C(=O)O)cc1)CCC[C@H](C)CCC[C@H](C)CCCC(C)C` [Example 1.15, 4-phytyloxybenzoic acid], the inhibition in vivo at 0.05 % strength with sebum [1] was 35%.

In the assay with sebum [1], `COC(=O)c1ccc(OCCCC2CCCCC2)cc1` [Example 1.3, 4-(3-cyclohexylpropyloxy)-benzoic acid methyl ester] gave an inhibition in vivo at 0.02 % strength of 0%, an inhibition in vivo at 0.05 % strength of 68% and an inhibition in vivo at 0.5 % strength of 99%.

In the assay with sebum [1], `COC(=O)C=Cc1ccc(OCC=C(C)CCC=C(C)CCC=C(C)C)cc1` [Example 1.12, 4-farnesyloxycinnamic acid methyl ester] displayed an inhibition in vivo at 0.05 % strength of 85%.

The compound `COC(=O)c1ccc(OC/C=C(\C)CCC=C(C)C)cc1` [Example 1.9, 4-geranyloxybenzoic acid methyl ester] showed an inhibition in vivo at 0.1 % strength in the assay on sebum [1] of 40%.

As for `O=C(O)c1ccc(OCCCC2CCCCC2)cc1` [Example 1.6, 4-(3-cyclohexylpropyloxy)-benzoic acid], in the assay on sebum [1], the inhibition in vivo at 0.005 % strength was determined as 0%, the inhibition in vivo at 0.01 % strength worked out at 52% and the inhibition in vivo at 0.02 % strength was determined as 84%.

Take `CC#C[C@]1(O)CC[C@H]2[C@@H]3CCc4cc(O)ccc4[C@H]3CC[C@@]21C` [estrogen]: the “skin colour after shearing (browning by sebum)” value in the assay on sebum [2] is listed as “only show the normal light, pink-colored skin after shearing”.

In the assay with sebum [1], `COC(=O)c1ccc(OCC=C(C)CCC=C(C)CCC=C(C)C)cc1` [Example 1.8, 4-farnesyloxybenzoic acid methyl ester] registered an inhibition in vivo at 0.01 % strength of 38% and an inhibition in vivo at 0.05 % strength of 86%.

In the assay with sebum [1], `CC(C)=CCCC(C)=CCCC(C)=CCOc1ccc(C=CC(=O)O)cc1` [Example 1.14, 4-farnesyloxycinnamic acid] registered an inhibition in vivo at 0.05 % strength of 73%.

Take `CC(CCC1C(C)CCCC1(C)C)Oc1ccc(C(=O)O)cc1` (stereo not shown) [Example 1.4, 4-(4-(1,3,3-trimethyl-2-cyclohexyl)-2-butoxy)-benzoic acid]: in the assay on sebum [1], the inhibition in vivo at 0.001 % strength worked out at 73%, the inhibition in vivo at 0.005 % strength was 88%, the inhibition in vivo at 0.01 % strength stood at 93% and the inhibition in vivo at 0.05 % strength is 100%.

`OCC=Cc1ccc(OCC2CCCCC2)cc1` [Example 1.7, 4-cyclohexylmethoxycinnamic alcohol]: in the assay with sebum [1], the inhibition in vivo at 0.1 % strength worked out at 53% and the inhibition in vivo at 0.5 % strength was found to be 66%.

On to `CC(C)=CCCC(C)=CCCC(C)=CCOc1ccc(C(=O)O)cc1` [Example 1.16, 4-farnesyloxybenzoic acid], for which the inhibition in vivo at 0.01 % strength in the assay with sebum [1] is 69%.

Compound `O=C(O)C=Cc1ccc(OCC2CCCCC2)cc1` [Example 1.5, 4-(cyclohexylmethoxy)-cinnamic acid] returned an inhibition in vivo at 0.5 % strength in the assay with sebum [1] of 15%.

`COC(=O)C=Cc1ccc(OCC2CCCCC2)cc1` [Example 1.2, 4-cyclohexylmethoxycinnamic acid methyl ester]: in the assay with sebum [1], the inhibition in vivo at 0.5 % strength is 29%.

`COC(=O)CCc1ccc(OCC=C(C)CCC=C(C)CCC=C(C)C)cc1` [Example 1.11, 3-(4-farnesyloxyphenyl)-propionic acid methyl ester] returned an inhibition in vivo at 0.05 % strength with sebum [1] of 86%.

On to `CC(C)=CCCC(C)=CCCC(C)=CCOc1ccc(CO)cc1` [Example 1.17, 4-farnesyloxybenzyl alcohol], for which, in the assay with sebum [1], the inhibition in vivo at 0.001 % strength was 14%, the inhibition in vivo at 0.005 % strength stood at 72%, the inhibition in vivo at 0.01 % strength was 87% and the inhibition in vivo at 0.05 % strength came to 86%. This compound returned an inhibition in vivo at 0.002 % strength with sebum [1] (Concentration 0.002 % by weight) of 18%.

In the assay with sebum [1], `CC(C)=CCCC(C)=CCCC(C)=CCOc1ccc(CCC(=O)O)cc1` [Example 1.13, 3-(4-farnesyloxyphenyl)-propionic acid] yielded an inhibition in vivo at 0.05 % strength of 68%.

In the assay with sebum [1], `COC(=O)c1ccc(OC(C)CCC2C(C)CCCC2(C)C)cc1` (stereo not shown) [Example 1.1, 4-[4-(1,1,3-trimethyl-2-cyclohexyl)-2-butoxy]-benzoic acid methyl ester] gave an inhibition in vivo at 0.01 % strength of 25% and an inhibition in vivo at 0.05 % strength of 99%.
